The experiment has as its system P388 leukemia ip, CD2F1 mice, survival T/C. Nature of the experiment: NCI In Vivo Anticancer Drug Screen. Data for tumor model P388 Leukemia (intraperitoneal) in CD2F1 (CDF1) mice. The note with it: endpoint: median survival time, higher = longer survival. An outline of the steps:
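Mice carrying the transplanted tumor received test compound or vehicle. Survival was recorded in each group, and the value is the treated-group measurement divided by that of the vehicle-treated control group.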

[1] abbreviates: dose: 100.0 mg/kg/injection, schedule: Q01DX001 (ip), vehicle: Klucel (hydroxypropylcellulose) (HPC).
Where [2] appears, read: dose: 200.0 mg/kg/injection, schedule: Q01DX001 (ip), vehicle: Klucel (hydroxypropylcellulose) (HPC).
[3] abbreviates: dose: 400.0 mg/kg/injection, schedule: Q01DX001 (ip), vehicle: Klucel (hydroxypropylcellulose) (HPC).
Where [4] appears, read: dose: 50.0 mg/kg/injection, schedule: Q01DX005 (ip), vehicle: saline with Tween-80.
[5] abbreviates: dose: 100.0 mg/kg/injection, schedule: Q01DX005 (ip), vehicle: saline with Tween-80.
[6] abbreviates: dose: 60.0 mg/kg/injection, schedule: Q01DX005 (ip), vehicle: saline with Tween-80.
[7] abbreviates: dose: 240.0 mg/kg/injection, schedule: Q01DX005 (ip), vehicle: saline with Tween-80.
The mark [8] stands for this setting: dose: 25.0 mg/kg/injection, schedule: Q01DX005 (ip), vehicle: Klucel (hydroxypropylcellulose) (HPC).
Setting [9] is: dose: 50.0 mg/kg/injection, schedule: Q01DX005 (ip), vehicle: Klucel (hydroxypropylcellulose) (HPC).
Where [10] appears, read: dose: 50.0 mg/kg/injection, schedule: Q01DX009 (ip), vehicle: saline with Tween-80.
Where [11] appears, read: dose: 100.0 mg/kg/injection, schedule: Q01DX005 (ip), vehicle: Klucel (hydroxypropylcellulose) (HPC).
Setting [12] is: dose: 100.0 mg/kg/injection, schedule: Q04DX002 (ip), vehicle: Klucel (hydroxypropylcellulose) (HPC).

Structures are written as SMILES. Values joined by “and” are separate entries in the source; they are usually repeats but may differ in a detail not shown here. Equal entries are not always repeated. Toxic doses and inconclusive results are not listed.

With `COc1ccc(C2CC(=O)N(c3nc(C)cc(C)n3)C(=O)C2)cc1`, the T/C was 96 % of control (dose: 100.0 mg/kg/injection, schedule: Q04DX003 (ip), vehicle: saline); 102 % of control (dose: 200.0 mg/kg/injection, schedule: Q04DX003 (ip), vehicle: saline); 100 % of control (dose: 400.0 mg/kg/injection, schedule: Q04DX003 (ip), vehicle: saline).
`CN(C)CC(O)c1ccc2ccc3ccccc3c2c1` (centres undefined): the T/C runs as follows: under setting [1], 102 % of control; under setting [2], 101 % of control; under setting [3], 101 % of control.
For `Cc1cc(N)ccc1N=Nc1ccc(N=Nc2ccc(N=Nc3ccc4cc(S(=O)(=O)O)cc(S(=O)(=O)O)c4c3)c(C)c2)c(C)c1`, the T/C was 114 % of control and 122 % of control under setting [4]; 115 % of control and 118 % of control and 124 % of control under setting [5]; 115 % of control (dose: 200.0 mg/kg/injection, schedule: Q01DX005 (ip), vehicle: saline with Tween-80).
As for `NC(=O)C1OC(n2cnc3c(N)ncnc32)C(O)C1O` (centres undefined), the T/C is 100 % of control and 104 % of control (dose: 1.56 mg/kg/injection, schedule: Q01DX005 (ip), vehicle: saline with Tween-80); 105 % of control and 114 % of control (dose: 3.13 mg/kg/injection, schedule: Q01DX005 (ip), vehicle: saline with Tween-80); 109 % of control and 115 % of control and 121 % of control (dose: 6.25 mg/kg/injection, schedule: Q01DX005 (ip), vehicle: saline with Tween-80).
As for `COc1ccc(N=C([Se])CCC(C)C)cc1`, the T/C (dose: 6.25 mg/kg/injection, schedule: Q01DX009 (ip), vehicle: Klucel (hydroxypropylcellulose) (HPC)) was 111 % of control; the T/C (dose: 12.5 mg/kg/injection, schedule: Q01DX009 (ip), vehicle: Klucel (hydroxypropylcellulose) (HPC)) was 106 % of control; the T/C (dose: 25.0 mg/kg/injection, schedule: Q01DX009 (ip), vehicle: Klucel (hydroxypropylcellulose) (HPC)) was 108 % of control.
`Cn1nc2c(c(Cl)c1=O)Nc1ccccc1O2`: the T/C under setting [6] is 108 % of control; the T/C (dose: 120.0 mg/kg/injection, schedule: Q01DX005 (ip), vehicle: saline with Tween-80) was 104 % of control; the T/C under setting [7] is 96 % of control.
Consider `CCCOC1(C)Oc2cc3c(cc2C(c2cc(OC)c(OC)c(OC)c2)C1C)OCO3` (centres undefined), for which the T/C is, setting by setting: (dose: 60.0 mg/kg/injection, schedule: Q01DX005 (ip), vehicle: Klucel (hydroxypropylcellulose) (HPC)) 97 % of control; (dose: 120.0 mg/kg/injection, schedule: Q01DX005 (ip), vehicle: Klucel (hydroxypropylcellulose) (HPC)) 96 % of control; (dose: 240.0 mg/kg/injection, schedule: Q01DX005 (ip), vehicle: Klucel (hydroxypropylcellulose) (HPC)) 99 % of control.
As to `C(=N\Nc1nnc2c3ccccc3c3ccccc3c2n1)/c1ccc2c(c1)OCO2`, the T/C is 91 % of control (dose: 50.0 mg/kg/injection, schedule: Q04DX002 (ip), vehicle: suspension in saline); 88 % of control (dose: 100.0 mg/kg/injection, schedule: Q04DX002 (ip), vehicle: suspension in saline); 91 % of control (dose: 200.0 mg/kg/injection, schedule: Q04DX002 (ip), vehicle: suspension in saline).
As to `COc1ccc2ncc(COC(=O)Nc3ccccc3)c(COC(=O)Nc3ccccc3)c2c1`, the T/C is, setting by setting: (dose: 12.5 mg/kg/injection, schedule: Q01DX005 (ip), vehicle: Klucel (hydroxypropylcellulose) (HPC)) 102 % of control and 106 % of control; under setting [8], 100 % of control and 94 % of control; under setting [9], 100 % of control and 95 % of control and 97 % of control.
Consider `CCCCCOc1ccc(C(=O)/C(Br)=C/C(=O)O)cc1`, for which the T/C (dose: 12.5 mg/kg/injection, schedule: Q01DX009 (ip), vehicle: saline with Tween-80) was 104 % of control; the T/C (dose: 25.0 mg/kg/injection, schedule: Q01DX009 (ip), vehicle: saline with Tween-80) was 109 % of control; the T/C under setting [10] is 123 % of control.
For `O=C1C2(CC3C=CC2C3)C(=O)C12CC1C=CC2C1` (centres undefined), the T/C by setting is: under setting [10], 102 % of control; (dose: 100.0 mg/kg/injection, schedule: Q01DX009 (ip), vehicle: saline with Tween-80) 100 % of control; (dose: 200.0 mg/kg/injection, schedule: Q01DX009 (ip), vehicle: saline with Tween-80) 103 % of control.
On to `CCCCCC(C)N(C)C(=O)CNCC(C)C` (centres undefined), for which the T/C is 100 % of control under setting [4] and 108 % of control under setting [5].
With `O=[N+]([O-])c1cc(C(Nc2nncs2)Nc2nncs2)ccc1Cl`, the T/C is 91 % of control (dose: 30.0 mg/kg/injection, schedule: Q01DX005 (ip), vehicle: saline with Tween-80); 109 % of control and 87 % of control under setting [6]; 150 % of control under setting [7].
As to `N#CCOC1OC(CO)C(O)C(O)C1O` (centres undefined), the T/C by setting is: under setting [9], 100 % of control; under setting [11], 99 % of control; (dose: 200.0 mg/kg/injection, schedule: Q01DX005 (ip), vehicle: Klucel (hydroxypropylcellulose) (HPC)) 99 % of control.
Turning to `CCOC(=O)Nc1nc2ccccc2n1CN1CCN(c2ccccc2)CC1`, the T/C was 92 % of control under setting [8], 95 % of control under setting [9] and 100 % of control under setting [11].
For `Cc1ccc(S(=O)(=O)OCCN(CCN(CCOS(=O)(=O)c2ccc(C)cc2)c2ccccc2)c2ccccc2)cc1`, the T/C is 99 % of control (dose: 100.0 mg/kg/injection, schedule: Q04DX003 (ip), vehicle: Klucel (hydroxypropylcellulose) (HPC)); 110 % of control (dose: 200.0 mg/kg/injection, schedule: Q04DX003 (ip), vehicle: Klucel (hydroxypropylcellulose) (HPC)); 101 % of control (dose: 400.0 mg/kg/injection, schedule: Q04DX003 (ip), vehicle: Klucel (hydroxypropylcellulose) (HPC)).
Take `O=C1CC(CO)CC2c3[nH]c4ccccc4c3CCN12` (centres undefined): the T/C reads like this: (dose: 17.5 mg/kg/injection, schedule: Q01DX005 (ip), vehicle: Klucel (hydroxypropylcellulose) (HPC)) 108 % of control; (dose: 35.0 mg/kg/injection, schedule: Q01DX005 (ip), vehicle: Klucel (hydroxypropylcellulose) (HPC)) 91 % of control; (dose: 70.0 mg/kg/injection, schedule: Q01DX005 (ip), vehicle: Klucel (hydroxypropylcellulose) (HPC)) 97 % of control.
Take `Cc1ccc(NC(=O)C(c2ccccc2)c2ccccc2)cc1`: the T/C runs as follows: (dose: 100.0 mg/kg/injection, schedule: Q04DX003 (ip), vehicle: saline with Tween-80) 98 % of control; (dose: 200.0 mg/kg/injection, schedule: Q04DX003 (ip), vehicle: saline with Tween-80) 97 % of control; (dose: 400.0 mg/kg/injection, schedule: Q04DX003 (ip), vehicle: saline with Tween-80) 92 % of control.
Turning to `COC(=O)c1ccc(/C=C/C#N)cc1`, the T/C (dose: 50.0 mg/kg/injection, schedule: Q01DX009 (ip), vehicle: saline) was 100 % of control; the T/C (dose: 100.0 mg/kg/injection, schedule: Q01DX009 (ip), vehicle: saline) is 102 % of control; the T/C (dose: 200.0 mg/kg/injection, schedule: Q01DX009 (ip), vehicle: saline) is 97 % of control.
As to `CCOC(=O)c1cnc2cc3c(cc2c1Nc1ccccc1C(=O)OC)OCO3`, the T/C is 101 % of control (dose: 50.0 mg/kg/injection, schedule: Q04DX002 (ip), vehicle: Klucel (hydroxypropylcellulose) (HPC)); 101 % of control under setting [12]; 97 % of control (dose: 200.0 mg/kg/injection, schedule: Q04DX002 (ip), vehicle: Klucel (hydroxypropylcellulose) (HPC)).
On to `Cn1c(=O)nc2n(-c3ccc(Cl)c(Cl)c3)c3ccccc3nc-2c1=O`, for which the T/C is, setting by setting: under setting [1], 107 % of control; under setting [2], 98 % of control; under setting [3], 94 % of control.
As for `Cn1c(=O)[nH]c(Sc2ccccc2)c(C=O)c1=O`, the T/C is, setting by setting: (dose: 100.0 mg/kg/injection, schedule: Q01DX001 (ip), vehicle: saline with Tween-80) 104 % of control; (dose: 200.0 mg/kg/injection, schedule: Q01DX001 (ip), vehicle: saline with Tween-80) 101 % of control.
Turning to `CCCCCCCCCCC(=O)CCCCCC`, the T/C is, setting by setting: (dose: 50.0 mg/kg/injection, schedule: Q01DX009 (ip), vehicle: other) 90 % of control; (dose: 100.0 mg/kg/injection, schedule: Q01DX009 (ip), vehicle: other) 100 % of control; (dose: 200.0 mg/kg/injection, schedule: Q01DX009 (ip), vehicle: other) 109 % of control.
`N#CC(OC(=O)c1cccc(C(=O)OC(C#N)(C(F)(F)F)C(F)(F)F)c1Sc1ccccc1)(C(F)(F)F)C(F)(F)F`: the T/C was 109 % of control under setting [12] and 115 % of control (dose: 400.0 mg/kg/injection, schedule: Q04DX002 (ip), vehicle: Klucel (hydroxypropylcellulose) (HPC)).

The values are drawn from PubChem BioAssay AID330 (DTP/NCI, 2004).
